The record followed here is ChEMBL document CHEMBL4699409, “Synthesis, evaluation and molecular modelling of piceatannol analogues as arginase inhibitors” (RSC Med Chem, 2020).

In general, IC50 refers to the concentration at which inhibition is half-maximal. For orientation: Ki means a dissociation constant, usually derived from enzyme kinetics or from competition with a known ligand.

In experiment [1] the target is T1, Arginase-1 (Bos taurus, UniProt Q2KJ64).
T1 sequence (Q2KJ64 whole entry): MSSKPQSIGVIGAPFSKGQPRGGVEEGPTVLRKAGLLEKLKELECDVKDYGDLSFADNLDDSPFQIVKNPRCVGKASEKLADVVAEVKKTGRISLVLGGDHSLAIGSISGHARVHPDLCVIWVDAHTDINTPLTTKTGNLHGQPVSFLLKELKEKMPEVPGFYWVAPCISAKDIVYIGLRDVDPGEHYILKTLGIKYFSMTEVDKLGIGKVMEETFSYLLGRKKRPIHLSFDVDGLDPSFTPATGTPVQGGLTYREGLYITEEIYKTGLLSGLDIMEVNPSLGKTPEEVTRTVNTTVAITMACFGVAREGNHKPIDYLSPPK
Briefly: Inhibition of recombinant bovine liver ARGI using L-arginine as substrate incubated for 60 mins by spectroscopic analysis.

For experiment [2], the target named is T2, Arginase-1 (Homo sapiens, UniProt P05089).
T2 sequence (P05089 whole entry): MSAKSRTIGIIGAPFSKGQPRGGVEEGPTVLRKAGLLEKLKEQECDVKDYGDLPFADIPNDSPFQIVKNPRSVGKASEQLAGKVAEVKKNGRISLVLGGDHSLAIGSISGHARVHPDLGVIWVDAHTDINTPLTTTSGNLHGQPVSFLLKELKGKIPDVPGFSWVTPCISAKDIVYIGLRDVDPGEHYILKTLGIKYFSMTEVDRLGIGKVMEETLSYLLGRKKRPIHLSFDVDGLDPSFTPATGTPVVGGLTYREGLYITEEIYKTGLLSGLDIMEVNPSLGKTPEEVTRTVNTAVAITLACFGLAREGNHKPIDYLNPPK
Description: Inhibition of recombinant human ARG1 expressed in CHO-K1 cells assessed as reduction in urea level incubated for 24 hrs by colorimetric assay. It counts as cell-based.

The target in experiment [3] is T1, Arginase-1. Description: Mixed type inhibition of recombinant bovine liver ARGI using L-arginine as substrate incubated for 60 mins by Dixon plot analysis.
For experiment [4], the target named is T2, Arginase-1. Description: Inhibition of recombinant human liver ARGI using L-arginine as substrate incubated for 60 mins by spectroscopic analysis.
In experiment [5] the target is T1, Arginase-1. Briefly: Mixed type inhibition of recombinant bovine liver ARGI using L-arginine as substrate incubated for 60 mins by Lineweaver-Burk plot analysis.
For experiment [6], the target named is T1, Arginase-1. Description: Mixed type inhibition of recombinant bovine liver ARGI using L-arginine as substrate incubated for 60 mins by Cornish-Bowden plot analysis.

`COC(=O)c1ccc(O)c(O)c1` [METHYL PROTOCATECHUATE]: the IC50 in experiment [1] stood at 285 µM.

With `Oc1ccc(CNCCc2ccccc2)cc1O`, in experiment [1], the IC50 was 367 µM.

As to `Oc1ccccc1O` [CATECHOL], the IC50 in experiment [1] was 123 µM.

For the compound `NCCc1ccc(O)c(O)c1` [DOPAMINE], the IC50 in experiment [1] worked out at 128 µM.

Turning to `COc1cccc(CNCc2ccc(O)c(O)c2)c1`, the IC50 in experiment [1] came out at 300 µM.

For the compound `COc1ccc(CNCc2ccc(O)c(O)c2)cc1`, the IC50 in experiment [1] came out at 389 µM.

Take `O=C(O)c1cc(O)cc(NCc2ccc(O)c(O)c2)c1`: in experiment [1], the concentration for half-maximal inhibition (IC50) was found to be 108 µM.

On to `N=C(NO)NCC[C@H](N)C(=O)O` [NOR-NOHA], for which, in experiment [1], the IC50 came to 2.7 µM.

With `Oc1ccc(CNCc2ccccc2)cc1O`, the IC50 in experiment [1] amounted to 145 µM.

In the case of `Oc1ccc(CNc2ccccc2)cc1O`, in experiment [1], the IC50 stood at 164 µM.

Turning to `Oc1ccc(CNCc2cc(Cl)cc(Cl)c2)cc1O`, in experiment [1], the IC50 stood at 277 µM.

`Oc1ccc(CNCCc2c[nH]cn2)cc1O`: the IC50 in experiment [1] amounted to 318 µM.

As to `N[C@@H](CCCCB(O)O)C(=O)O`, the IC50 in experiment [2] was 16.8 µM.

Regarding `Oc1cc(O)cc(NCc2ccc(O)c(O)c2)c1`, in experiment [1], the IC50 was 141 µM.

Regarding `O=C(O)/C=C/c1ccc(O)c(O)c1` [CAFFEIC ACID], in experiment [1], the IC50 came out at 131 µM.

On to `Oc1ccc(CNCCN2CCOCC2)cc1O`, for which the half-maximal inhibitory concentration (IC50) in experiment [1] is 467 µM.

For the compound `NCc1ccc(O)c(O)c1`, the IC50 in experiment [1] came out at 164 µM.

Turning to `Oc1cccc(NCc2ccc(O)c(O)c2)c1`, in experiment [1], the IC50 turned out to be 83 µM.

With `OCc1ccc(O)c(O)c1`, in experiment [1], the IC50 was 106 µM.

With `NCCCNCc1ccc(O)c(O)c1`, the IC50 in experiment [1] came to 343 µM.

Consider `Oc1ccc(NCc2ccc(O)c(O)c2)cc1`, for which the IC50 in experiment [1] was 238 µM.

With `Oc1ccc(CNCc2cccc(Cl)c2)cc1O`, in experiment [1], the IC50 came out at 329 µM.

On to `Oc1cc(O)cc(/C=C/c2ccc(O)c(O)c2)c1` [PICEATANNOL], for which the half-inhibitory concentration (IC50) in experiment [1] was found to be 47 µM; in experiment [4], 69 µM; in experiment [2], 1180 µM. The inhibitory constant (Ki) in experiment [3], in experiment [5] and in experiment [6] was 136 µM in each case.

As for `COc1cccc(NCc2ccc(O)c(O)c2)c1`, in experiment [1], the IC50 stood at 185 µM.

For the compound `O=C(O)c1cc(NCc2ccc(O)c(O)c2)ccc1O`, the IC50 in experiment [1] was 187 µM.

`COc1ccc(NCc2ccc(O)c(O)c2)cc1`: the IC50 in experiment [1] turned out to be 154 µM.

With `Oc1ccc(CNc2ccc(O)c(O)c2)cc1O`, the IC50 in experiment [1] stood at 76 µM; in experiment [4], 89 µM; in experiment [2], 794 µM. Moreover, the Ki in experiment [3], in experiment [5] and in experiment [6] was 82 µM in each case.

For `Oc1cccc(Br)c1O`, in experiment [1], the IC50 is 274 µM.

As for `Oc1ccc(CNCc2ccc3c(c2)OCO3)cc1O`, the IC50 in experiment [1] is 226 µM.

As for `Oc1ccc(O)c(O)c1`, the half-maximal inhibitory concentration (IC50) in experiment [1] came out at 360 µM.

On to `CCOC(=O)C(NCc1ccc(O)c(O)c1)C(=O)OCC`, for which, in experiment [1], the IC50 is 362 µM.

Turning to `Nc1ccc(O)c(O)c1`, the 50% inhibitory concentration (IC50) in experiment [1] was determined as 478 µM.
